ChEMBL document CHEMBL5661983, “The selective anaplastic lymphoma receptor tyrosine kinase inhibitor ASP3026 induces tumor regression and prolongs survival in non-small cell lung cancer model mice” (Mol Cancer Ther, 2014)
The source made the active and inactive calls. The rule behind the calls is not given here.

Assays:
NCI-H2228 [1] = assay: Antitumor activity against human NCI-H2228 cells xenografted in NOD.CB17-Prkdcscid/J mouse assessed as increase in tumor regression at 12 mg/kg, iv administered daily for 5 days; format: functional, organism-based; conditions: time 5.0 day
NCI-H2228 [2] = assay: Antitumor activity against human NCI-H2228 cells xenografted in NOD.CB17-Prkdcscid/J mouse assessed as reduction in tumor volume at 50 mg/kg, iv administered daily for 5 days; format: functional, organism-based; conditions: time 5.0 day
[3] = Toxicity in human NCI-H2228 cell xenografted NOD.CB17-Prkdcscid/J mouse assessed as body weight loss at 50 mg/kg, iv administered once daily for 5 days; format: organism-based; conditions: in vivo, 120 h, time 5 day

Compound	Activity (NCI-H2228 [1])	Activity (NCI-H2228 [2])	Activity [3]
CC(=O)O[C@H]1C(=O)[C@@]2(C)[C@H]([C@H](OC(=O)c3ccccc3)[C@]3(O)C[C@H](OC(=O)[C@H](O)[C@@H](NC(=O)c4ccccc4)c4ccccc4)C(C)=C1C3(C)C)[C@]1(OC(C)=O)CO[C@@H]1C[C@@H]2O	Active		
Nc1nc2[nH]cc(CCc3ccc(C(=O)N[C@@H](CCC(=O)O)C(=O)O)cc3)c2c(=O)[nH]1 [PEMETREXED]		Active	Toxic
